Data: ChEMBL document CHEMBL3632469, “Discovery of dihydroquinazolinone derivatives as potent, selective, and CNS-penetrant M(1) and M(4) muscarinic acetylcholine receptors agonists” (Bioorg Med Chem Lett, 2015)

Assays:
[1] = molecular target: T1, Muscarinic acetylcholine receptor M4 (Homo sapiens) (UniProt P08173); experiment: Partial agonist activity at human muscarinic M4 acetylcholine receptor expressed in CHO cells co-expressing Galpha16 assessed as calcium mobilization at 30 uM by FLIPR assay; assay type: functional, cell-based
T1 sequence (whole entry): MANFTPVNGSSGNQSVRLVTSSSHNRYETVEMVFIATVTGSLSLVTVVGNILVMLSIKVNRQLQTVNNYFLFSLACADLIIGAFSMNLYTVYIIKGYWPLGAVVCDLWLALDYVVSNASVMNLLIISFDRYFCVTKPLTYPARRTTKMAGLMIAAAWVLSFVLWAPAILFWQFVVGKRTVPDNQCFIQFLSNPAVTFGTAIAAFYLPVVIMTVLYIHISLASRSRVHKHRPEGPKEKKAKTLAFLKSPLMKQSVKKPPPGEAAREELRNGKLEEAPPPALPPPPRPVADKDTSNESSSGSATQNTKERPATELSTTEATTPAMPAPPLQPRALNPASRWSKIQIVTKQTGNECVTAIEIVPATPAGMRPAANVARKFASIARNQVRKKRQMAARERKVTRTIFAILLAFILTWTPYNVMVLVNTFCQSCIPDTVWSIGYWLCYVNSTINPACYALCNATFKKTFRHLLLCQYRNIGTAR

[2] = molecular target: 5-hydroxytryptamine receptor 2B (Homo sapiens) (UniProt P41595); experiment: Agonist activity at 5-HT2B receptor (unknown origin) expressed in CHO cells assessed as calcium mobilization at 3 uM; assay type: functional, cell-based
Sequence of 5-hydroxytryptamine receptor 2B (Homo sapiens) (P41595 whole entry): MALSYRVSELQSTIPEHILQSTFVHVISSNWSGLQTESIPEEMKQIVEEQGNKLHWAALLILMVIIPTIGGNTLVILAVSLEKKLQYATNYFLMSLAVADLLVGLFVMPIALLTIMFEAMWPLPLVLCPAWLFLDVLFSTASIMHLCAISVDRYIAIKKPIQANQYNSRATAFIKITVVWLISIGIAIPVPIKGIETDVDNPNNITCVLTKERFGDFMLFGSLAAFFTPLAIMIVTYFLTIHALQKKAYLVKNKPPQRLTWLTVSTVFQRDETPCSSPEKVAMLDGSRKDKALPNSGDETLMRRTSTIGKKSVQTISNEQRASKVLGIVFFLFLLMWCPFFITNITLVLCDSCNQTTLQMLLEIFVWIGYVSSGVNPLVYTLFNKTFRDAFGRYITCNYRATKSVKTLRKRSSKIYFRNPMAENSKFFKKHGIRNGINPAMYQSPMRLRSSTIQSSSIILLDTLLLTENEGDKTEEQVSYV

[3] = molecular target: Beta-2 adrenergic receptor (Homo sapiens) (UniProt P07550); experiment: Agonist activity at adrenergic beta2 receptor (unknown origin) expressed in CHO cells assessed as calcium mobilization at 3 uM; assay type: functional, cell-based
Sequence of Beta-2 adrenergic receptor (Homo sapiens) (P07550 whole entry, looked up): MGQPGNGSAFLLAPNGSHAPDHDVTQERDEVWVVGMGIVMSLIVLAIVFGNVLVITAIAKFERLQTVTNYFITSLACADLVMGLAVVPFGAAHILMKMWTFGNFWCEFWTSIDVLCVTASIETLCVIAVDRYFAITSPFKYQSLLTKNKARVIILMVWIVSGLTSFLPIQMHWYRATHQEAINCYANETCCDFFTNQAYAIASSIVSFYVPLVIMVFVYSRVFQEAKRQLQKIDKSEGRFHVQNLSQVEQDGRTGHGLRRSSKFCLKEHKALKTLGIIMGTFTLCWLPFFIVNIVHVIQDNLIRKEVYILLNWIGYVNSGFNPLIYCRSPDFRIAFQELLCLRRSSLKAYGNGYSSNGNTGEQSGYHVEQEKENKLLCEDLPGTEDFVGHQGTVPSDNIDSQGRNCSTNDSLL

[4] = molecular target: Histamine H2 receptor (Homo sapiens) (UniProt P25021); experiment: Antagonist activity at histamine H2 receptor (unknown origin) expressed in CHO cells assessed as calcium mobilization at 3 uM; assay type: functional, cell-based
Sequence of Histamine H2 receptor (Homo sapiens) (P25021 whole entry): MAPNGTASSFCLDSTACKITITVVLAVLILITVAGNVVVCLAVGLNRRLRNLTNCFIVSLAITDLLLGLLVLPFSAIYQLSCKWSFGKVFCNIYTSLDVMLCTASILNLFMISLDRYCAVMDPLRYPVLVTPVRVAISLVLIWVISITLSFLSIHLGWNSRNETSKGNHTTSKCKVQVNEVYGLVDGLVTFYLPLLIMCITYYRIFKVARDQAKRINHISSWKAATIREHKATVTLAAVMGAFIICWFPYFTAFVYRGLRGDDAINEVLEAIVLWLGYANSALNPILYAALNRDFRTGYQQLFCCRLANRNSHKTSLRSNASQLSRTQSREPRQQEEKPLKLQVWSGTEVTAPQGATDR

[5] = molecular target: T1, Muscarinic acetylcholine receptor M4 (Homo sapiens); experiment: Partial agonist activity at human muscarinic M4 acetylcholine receptor expressed in CHO cells co-expressing Galpha16 assessed as calcium mobilization by FLIPR assay relative to control; assay type: functional, cell-based
[6] = molecular target: 5-hydroxytryptamine receptor 2A (Homo sapiens) (UniProt P28223); experiment: Agonist activity at 5-HT2a receptor (unknown origin) expressed in CHO cells assessed as calcium mobilization at 3 uM; assay type: functional, cell-based
[7] = molecular target: Adenosine receptor A2b (Homo sapiens) (UniProt P29275); experiment: Agonist activity at adenosine a2B receptor (unknown origin) expressed in CHO cells assessed as calcium mobilization at 3 uM
[8] = molecular target: Alpha-1A adrenergic receptor (Homo sapiens) (UniProt P35348); experiment: Binding affinity to adrenergic alpha1A receptor (unknown origin) at 3 uM by radioligand-binding assay
Sequence of Alpha-1A adrenergic receptor (Homo sapiens) (P35348 whole entry): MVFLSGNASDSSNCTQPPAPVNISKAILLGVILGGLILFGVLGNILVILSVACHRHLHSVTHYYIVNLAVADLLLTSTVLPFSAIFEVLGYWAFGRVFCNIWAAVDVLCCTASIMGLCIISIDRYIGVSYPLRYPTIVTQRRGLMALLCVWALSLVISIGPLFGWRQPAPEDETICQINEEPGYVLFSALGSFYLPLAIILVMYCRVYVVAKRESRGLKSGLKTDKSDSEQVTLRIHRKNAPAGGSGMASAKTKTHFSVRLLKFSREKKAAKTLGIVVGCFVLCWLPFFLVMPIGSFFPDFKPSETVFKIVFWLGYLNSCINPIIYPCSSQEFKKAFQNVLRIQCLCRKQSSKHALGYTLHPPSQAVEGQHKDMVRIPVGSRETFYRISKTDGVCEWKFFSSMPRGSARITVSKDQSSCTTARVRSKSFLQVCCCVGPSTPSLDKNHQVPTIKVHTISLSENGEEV

[9] = molecular target: Alpha-2C adrenergic receptor (Homo sapiens) (UniProt P18825); experiment: Agonist activity at adrenergic a2C receptor (unknown origin) expressed in CHO cells assessed as calcium mobilization at 3 uM; assay type: functional, cell-based
[10] = molecular target: T2, Muscarinic acetylcholine receptor M2 (Homo sapiens) (UniProt P08172); experiment: Agonist activity at human muscarinic M2 acetylcholine receptor expressed in CHO cells co-expressing Galpha16 assessed as calcium mobilization at 30 uM by FLIPR assay; assay type: functional, cell-based
T2 sequence (whole entry): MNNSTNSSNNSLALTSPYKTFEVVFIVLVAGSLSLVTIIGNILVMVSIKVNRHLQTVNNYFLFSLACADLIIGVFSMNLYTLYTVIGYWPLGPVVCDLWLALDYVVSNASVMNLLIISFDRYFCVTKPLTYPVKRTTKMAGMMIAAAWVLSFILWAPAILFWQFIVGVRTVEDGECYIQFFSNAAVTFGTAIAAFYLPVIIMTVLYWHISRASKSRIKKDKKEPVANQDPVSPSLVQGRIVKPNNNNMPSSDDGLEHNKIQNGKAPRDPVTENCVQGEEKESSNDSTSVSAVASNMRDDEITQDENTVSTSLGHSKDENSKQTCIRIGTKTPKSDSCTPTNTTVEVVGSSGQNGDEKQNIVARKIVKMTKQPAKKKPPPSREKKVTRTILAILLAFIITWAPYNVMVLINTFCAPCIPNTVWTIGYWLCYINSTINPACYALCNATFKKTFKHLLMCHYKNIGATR

[11] = molecular target: 5-hydroxytryptamine receptor 1A (Homo sapiens) (UniProt P08908); experiment: Agonist activity at 5-HT1a receptor (unknown origin) expressed in CHO cells assessed as calcium mobilization at 3 uM; assay type: functional, cell-based
Sequence of 5-hydroxytryptamine receptor 1A (Homo sapiens) (P08908 whole entry): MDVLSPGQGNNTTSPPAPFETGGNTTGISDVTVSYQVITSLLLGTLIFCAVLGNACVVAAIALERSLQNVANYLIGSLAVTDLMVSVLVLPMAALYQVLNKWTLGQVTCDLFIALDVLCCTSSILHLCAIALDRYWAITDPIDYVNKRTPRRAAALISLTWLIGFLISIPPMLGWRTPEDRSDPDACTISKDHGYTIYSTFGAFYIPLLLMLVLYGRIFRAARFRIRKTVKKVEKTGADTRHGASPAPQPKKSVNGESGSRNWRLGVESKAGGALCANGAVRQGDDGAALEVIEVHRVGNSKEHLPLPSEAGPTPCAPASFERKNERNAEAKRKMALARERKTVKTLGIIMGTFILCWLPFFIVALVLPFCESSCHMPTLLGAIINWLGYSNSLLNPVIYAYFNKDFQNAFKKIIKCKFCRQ

[12] = molecular target: 5-hydroxytryptamine receptor 1B (Homo sapiens) (UniProt P28222); experiment: Agonist activity at 5-HT1B receptor (unknown origin) expressed in CHO cells assessed as calcium mobilization at 3 uM; assay type: functional, cell-based
[13] = molecular target: 5-hydroxytryptamine receptor 7 (Homo sapiens) (UniProt P34969); experiment: Antagonist activity at 5-HT7B receptor (unknown origin) expressed in CHO cells assessed as calcium mobilization at 3 uM; assay type: functional, cell-based
Sequence of 5-hydroxytryptamine receptor 7 (Homo sapiens) (P34969 whole entry): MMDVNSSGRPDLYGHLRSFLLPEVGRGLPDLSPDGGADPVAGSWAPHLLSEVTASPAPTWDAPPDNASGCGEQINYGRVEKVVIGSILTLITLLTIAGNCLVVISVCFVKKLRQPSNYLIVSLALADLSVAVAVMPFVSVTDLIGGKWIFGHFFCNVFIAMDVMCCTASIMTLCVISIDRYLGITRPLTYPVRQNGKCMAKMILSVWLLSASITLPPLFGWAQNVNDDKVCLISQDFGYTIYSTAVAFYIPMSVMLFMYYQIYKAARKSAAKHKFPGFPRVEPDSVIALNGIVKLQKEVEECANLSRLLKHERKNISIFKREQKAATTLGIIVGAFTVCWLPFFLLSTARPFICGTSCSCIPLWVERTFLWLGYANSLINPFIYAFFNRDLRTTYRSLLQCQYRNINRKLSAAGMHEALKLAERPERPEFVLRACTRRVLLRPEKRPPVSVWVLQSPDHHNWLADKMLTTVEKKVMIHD

Cytochrome P450 3A4 = Cytochrome P450 3A4 (Homo sapiens, UniProt P08684); experiment: Inhibition of CYP3A4 (unknown origin); assay type: ADME
[14] = molecular target: Alpha-1B adrenergic receptor (Homo sapiens) (UniProt P35368); experiment: Agonist activity at adrenergic a1B receptor (unknown origin) expressed in CHO cells assessed as calcium mobilization at 3 uM; assay type: functional, cell-based
Sequence of Alpha-1B adrenergic receptor (Homo sapiens) (P35368 whole entry): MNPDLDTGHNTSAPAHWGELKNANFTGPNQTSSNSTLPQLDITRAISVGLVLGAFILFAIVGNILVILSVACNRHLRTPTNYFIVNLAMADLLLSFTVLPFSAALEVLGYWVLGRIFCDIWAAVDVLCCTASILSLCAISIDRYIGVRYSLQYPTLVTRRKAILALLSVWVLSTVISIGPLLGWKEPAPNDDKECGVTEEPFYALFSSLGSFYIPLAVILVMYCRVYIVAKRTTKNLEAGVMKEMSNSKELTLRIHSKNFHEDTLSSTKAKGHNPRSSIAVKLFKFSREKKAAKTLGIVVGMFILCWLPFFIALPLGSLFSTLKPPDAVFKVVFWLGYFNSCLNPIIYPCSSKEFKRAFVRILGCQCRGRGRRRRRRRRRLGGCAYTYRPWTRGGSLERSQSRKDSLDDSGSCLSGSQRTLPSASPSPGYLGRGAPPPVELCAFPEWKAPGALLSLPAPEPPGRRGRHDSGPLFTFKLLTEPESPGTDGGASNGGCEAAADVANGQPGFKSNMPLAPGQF

[15] = molecular target: D(1B) dopamine receptor (Homo sapiens) (UniProt P21918); experiment: Agonist activity at dopamine D5 receptor (unknown origin) expressed in CHO cells assessed as calcium mobilization at 3 uM; assay type: functional, cell-based
Sequence of D(1B) dopamine receptor (Homo sapiens) (P21918 whole entry): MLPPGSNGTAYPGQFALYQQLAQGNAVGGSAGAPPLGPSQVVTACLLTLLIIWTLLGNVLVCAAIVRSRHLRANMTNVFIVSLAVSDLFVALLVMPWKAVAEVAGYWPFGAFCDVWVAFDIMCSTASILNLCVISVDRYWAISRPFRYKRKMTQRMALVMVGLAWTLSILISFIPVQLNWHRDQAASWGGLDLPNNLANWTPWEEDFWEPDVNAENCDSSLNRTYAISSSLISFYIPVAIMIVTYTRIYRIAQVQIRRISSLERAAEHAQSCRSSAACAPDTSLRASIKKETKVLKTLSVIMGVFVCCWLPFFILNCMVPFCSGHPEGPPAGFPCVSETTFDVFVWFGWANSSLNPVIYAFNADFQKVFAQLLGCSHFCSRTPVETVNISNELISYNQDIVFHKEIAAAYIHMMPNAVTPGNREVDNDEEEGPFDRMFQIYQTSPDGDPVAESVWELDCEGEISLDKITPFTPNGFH

[16] = molecular target: Muscarinic acetylcholine receptor M4 (Homo sapiens, UniProt P08173); experiment: Partial agonist activity at human muscarinic M4 acetylcholine receptor expressed in CHO cells co-expressing Galpha16 assessed as calcium mobilization by FLIPR assay; assay type: functional, cell-based
[17] = molecular target: Muscarinic acetylcholine receptor M1 (Homo sapiens, UniProt P11229); experiment: Agonist activity at human muscarinic M1 acetylcholine receptor expressed in CHO cells assessed as calcium mobilization by FLIPR assay; assay type: functional, cell-based
Sequence of Muscarinic acetylcholine receptor M1 (P11229 whole entry): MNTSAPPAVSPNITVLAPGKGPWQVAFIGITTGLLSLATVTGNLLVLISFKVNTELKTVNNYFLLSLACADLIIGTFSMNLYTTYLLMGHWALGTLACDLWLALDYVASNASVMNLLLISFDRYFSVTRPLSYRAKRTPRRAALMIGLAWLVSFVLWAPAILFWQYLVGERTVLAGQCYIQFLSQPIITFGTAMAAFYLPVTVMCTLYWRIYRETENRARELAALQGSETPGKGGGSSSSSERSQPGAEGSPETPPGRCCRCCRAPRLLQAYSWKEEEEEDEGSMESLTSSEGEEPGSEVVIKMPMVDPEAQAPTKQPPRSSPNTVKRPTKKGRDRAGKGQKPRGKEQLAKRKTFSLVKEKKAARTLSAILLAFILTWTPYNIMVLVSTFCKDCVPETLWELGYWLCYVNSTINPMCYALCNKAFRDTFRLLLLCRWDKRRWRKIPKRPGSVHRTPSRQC

[18] = molecular target: 5-hydroxytryptamine receptor 1F (Homo sapiens) (UniProt P30939); experiment: Antagonist activity at 5-HT1F receptor (unknown origin) expressed in CHO cells assessed as calcium mobilization at 3 uM; assay type: functional, cell-based
Sequence of 5-hydroxytryptamine receptor 1F (Homo sapiens) (P30939 whole entry): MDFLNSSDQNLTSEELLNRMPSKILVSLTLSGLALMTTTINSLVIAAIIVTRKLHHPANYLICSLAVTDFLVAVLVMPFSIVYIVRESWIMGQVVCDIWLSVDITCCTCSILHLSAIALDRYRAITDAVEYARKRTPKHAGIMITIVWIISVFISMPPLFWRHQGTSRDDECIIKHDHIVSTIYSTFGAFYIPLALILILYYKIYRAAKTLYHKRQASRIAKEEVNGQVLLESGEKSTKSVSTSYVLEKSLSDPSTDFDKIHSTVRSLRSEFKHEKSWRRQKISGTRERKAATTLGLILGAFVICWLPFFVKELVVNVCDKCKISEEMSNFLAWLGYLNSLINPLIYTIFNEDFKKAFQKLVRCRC

[19] = molecular target: D(2) dopamine receptor (Homo sapiens) (UniProt P14416); experiment: Binding affinity to dopamine D2 receptor (unknown origin) at 3 uM by radioligand-binding assay
[20] = molecular target: P2Y purinoceptor 1 (Homo sapiens) (UniProt P47900); experiment: Antagonist activity at P2Y1 receptor (unknown origin) expressed in CHO cells assessed as calcium mobilization at 3 uM; assay type: functional, cell-based
[21] = molecular target: Histamine H1 receptor (Homo sapiens) (UniProt P35367); experiment: Antagonist activity at histamine H1 receptor (unknown origin) expressed in CHO cells assessed as calcium mobilization at 3 uM; assay type: functional, cell-based
[22] = molecular target: 5-hydroxytryptamine receptor 5A (Homo sapiens) (UniProt P47898); experiment: Antagonist activity at 5-HT5a receptor (unknown origin) expressed in CHO cells assessed as calcium mobilization at 3 uM; assay type: functional, cell-based
Sequence of 5-hydroxytryptamine receptor 5A (Homo sapiens) (P47898 whole entry): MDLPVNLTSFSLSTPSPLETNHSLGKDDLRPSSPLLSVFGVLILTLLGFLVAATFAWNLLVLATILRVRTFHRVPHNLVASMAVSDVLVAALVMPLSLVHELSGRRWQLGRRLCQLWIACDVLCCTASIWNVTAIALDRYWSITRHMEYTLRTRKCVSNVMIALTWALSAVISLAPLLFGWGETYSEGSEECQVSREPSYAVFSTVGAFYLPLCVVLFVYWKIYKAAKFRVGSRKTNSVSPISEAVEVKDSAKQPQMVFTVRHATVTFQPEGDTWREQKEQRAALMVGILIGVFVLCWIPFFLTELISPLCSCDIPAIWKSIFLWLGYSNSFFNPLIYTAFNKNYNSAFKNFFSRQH

[23] = molecular target: 5-hydroxytryptamine receptor 6 (Homo sapiens) (UniProt P50406); experiment: Agonist activity at 5-HT6 receptor (unknown origin) expressed in CHO cells assessed as calcium mobilization at 3 uM; assay type: functional, cell-based

In the case of `CCOC(=O)N1[C@@H]2CC[C@H]1C[C@H](CN1CC[C@@H](N3Cc4ccccc4NC3=O)C1)C2`, the Activity [1] is reported as 51%, the Activity [2] is reported as -0.03% and the Activity [3] is reported as -0.21%. For the same compound, the inhibition [4] was 5.27%, the Activity [5] was 51% and the Activity [6] was 0.07%. For the same compound, the Activity [7] was -0.01%, the inhibition [8] was 6% and the Activity [9] was -0.89%. For the same compound, the Activity [10] was 3%, the Activity [11] was 0.06% and the Activity [12] was -1.26%. The inhibition [13] was 15.4%, the IC50 (Cytochrome P450 3A4) was over 2000 nM and the Activity [14] was 0.82%. It also gave an Activity [15] of 0.08%, an EC50 [16] of 86 nM and an EC50 [17] of 14 nM. For the same compound, the inhibition [18] was 1.04%, the inhibition [19] was 13% and the inhibition [20] was -8.79%. The inhibition [21] was 5.59%, the inhibition [22] was 0.91% and the Activity [23] was -0.54%.
